Assay results as given in ChEMBL document CHEMBL3217428, “Synthesis and evaluation of novel 5-sulfonyl-indolin-2-ones as potent cytotoxic agents” (Medchemcomm, 2011).
Active and inactive are the calls of the source. The rule behind the calls is not given here.

How the values were obtained:
[1] = target: Fibroblast growth factor receptor 2 (Homo sapiens) (UniProt P21802); test: Inhibition of FGFR2 (unknown origin) at 50 uM
[2] = Cytotoxicity against human SGC7901 cells; format: functional, cell-based; conditions: SGC-7901
[3] = Cytotoxicity against human ECA109 cells; format: functional, cell-based; conditions: ECa-109
A549 [4] = test: Cytotoxicity against human A549 cells; format: functional, cell-based
HCT-116 = test: Cytotoxicity against human HCT116 cells; format: functional, cell-based
A549 [5] = test: Induction of apoptosis in human A549 cells assessed as hypodiploid DNA at 5 uM after 72 hrs by flow cytometry; format: functional, cell-based
HUVEC [6] = test: Antimigratory activity in HUVEC at 2 uM; format: functional, cell-based; conditions: Homo sapiens
HUVEC [7] = test: Antiangiogenic activity in HUVEC assessed as reduction in anastomoses formation by matrigel assay; format: functional, cell-based; conditions: Homo sapiens
HUVEC [8] = test: Antiangiogenic activity in HUVEC assessed as reduction in tube formation by matrigel assay; format: functional, cell-based; conditions: Homo sapiens
A549 [9] = test: Cell cycle arrest in human A549 cells assessed as accumulation at sub-G0/G1 phase at 5 uM after 72 hrs by flow cytometry; format: functional
A549 [10] = test: Induction of apoptosis in human A549 cells assessed as DNA fragmentation at 1.25 to 5 uM after 72 hrs by flow cytometry; format: functional, cell-based
A549 [11] = test: Induction of apoptosis in human A549 cells at 5 uM after 72 hrs by flow cytometry; format: functional

Sequence of Fibroblast growth factor receptor 2 (Homo sapiens) (P21802 22-821 limits assumed): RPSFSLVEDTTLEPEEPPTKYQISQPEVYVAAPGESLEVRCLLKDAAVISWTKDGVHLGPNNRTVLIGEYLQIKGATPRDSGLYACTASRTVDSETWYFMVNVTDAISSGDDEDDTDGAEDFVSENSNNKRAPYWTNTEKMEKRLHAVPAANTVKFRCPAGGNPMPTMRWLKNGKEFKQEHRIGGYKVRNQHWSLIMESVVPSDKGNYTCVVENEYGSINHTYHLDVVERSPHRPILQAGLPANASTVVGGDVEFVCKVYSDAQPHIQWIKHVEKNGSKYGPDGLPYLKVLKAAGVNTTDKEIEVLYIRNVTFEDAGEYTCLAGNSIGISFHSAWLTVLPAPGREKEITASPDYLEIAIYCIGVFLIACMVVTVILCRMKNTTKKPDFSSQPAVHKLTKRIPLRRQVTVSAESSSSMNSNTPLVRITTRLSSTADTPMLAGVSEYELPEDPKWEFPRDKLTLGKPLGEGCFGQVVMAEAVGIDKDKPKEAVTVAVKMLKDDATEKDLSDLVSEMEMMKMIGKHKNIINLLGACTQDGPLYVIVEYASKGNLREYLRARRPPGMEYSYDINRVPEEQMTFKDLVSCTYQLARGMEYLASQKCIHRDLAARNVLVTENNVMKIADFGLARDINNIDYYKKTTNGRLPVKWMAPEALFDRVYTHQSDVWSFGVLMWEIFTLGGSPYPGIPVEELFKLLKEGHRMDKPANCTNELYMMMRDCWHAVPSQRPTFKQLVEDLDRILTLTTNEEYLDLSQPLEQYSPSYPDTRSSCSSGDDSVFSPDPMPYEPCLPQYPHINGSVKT

Row | Compound | inhibition [1] [%] | IC50 [2] [µM] | IC50 [3] [µM] | IC50 (A549 [4]) [µM] | IC50 (HCT-116) [µM] | Activity (A549 [5]) | Activity (HUVEC [6]) | Activity (HUVEC [7]) | Activity (HUVEC [8]) | Activity (A549 [9]) [%] | inhibition (A549 [4]) | Activity (A549 [10]) | Activity (A549 [11]) [%]
1 | CCN(CC)CCNC(=O)c1c(C)[nH]c(/C=C2\C(=O)Nc3ccc(/C=C/S(=O)(=O)c4ccc(Br)cc4)cc32)c1C | 67.8 | 2.28 | 6.23 | 5.21 | 3.35 | – | – | – | – | – | – | – | –
2 | CCN(CC)CCNC(=O)c1c(C)[nH]c(/C=C2\C(=O)Nc3ccc(/C=C/S(=O)(=O)Cc4cccc(F)c4)cc32)c1C | – | 11.1 | 7.33 | 8.41 | 12.7 | – | – | – | – | – | – | – | –
3 | CCN(CC)CCCNC(=O)c1c(C)[nH]c(/C=C2\C(=O)Nc3ccc(/C=C/S(=O)(=O)c4ccc(F)cc4)cc32)c1C | – | 3.45 | 4.75 | > 12.5 | 5.77 | – | – | – | – | – | – | – | –
4 | O=c1c(O)c(-c2ccc(O)c(O)c2)oc2cc(O)cc(O)c12 | 67.3 | – | – | – | – | – | – | – | – | – | – | – | –
5 | CCN(CC)CCNC(=O)c1c(C)[nH]c(/C=C2\C(=O)Nc3ccc(/C=C/S(=O)(=O)Cc4ccc(Cl)cc4)cc32)c1C | – | > 25 | > 25 | > 25.3 | > 25 | – | – | – | – | – | – | – | –
6 | CCN(CC)CCNC(=O)c1c(C)[nH]c(/C=C2\C(=O)Nc3ccc(S(=O)(=O)/C=C/c4ccc(Cl)cc4)cc32)c1C | 72 | 2.58 | 4.84 | 2.85 | 1.95 | – | – | – | – | – | – | – | –
7 | CCN(CC)CCNC(=O)c1c(C)[nH]c(/C=C2\C(=O)Nc3ccc(/C=C/S(=O)(=O)c4ccccc4)cc32)c1C | – | 5.82 | 2.7 | 6.86 | 6.44 | – | – | – | – | – | – | – | –
8 | CCN(CC)CCNC(=O)c1c(C)[nH]c(/C=C2\C(=O)Nc3ccc(S(=O)(=O)/C=C/c4ccccc4)cc32)c1C | – | 4.99 | 1.37 | 2.87 | 2.41 | – | – | – | – | – | – | – | –
9 | CCN(CC)CCNC(=O)c1c(C)[nH]c(/C=C2\C(=O)Nc3ccc(/C=C/S(=O)(=O)Cc4ccc(F)cc4)cc32)c1C | – | > 12.5 | > 12.5 | > 12.5 | > 12.5 | – | – | – | – | – | – | – | –
10 | CCN(CC)CCNC(=O)c1c(C)[nH]c(/C=C2\C(=O)Nc3ccc(/C=C/S(=O)(=O)c4ccc(F)cc4)cc32)c1C | 76.6 | 6.87 | 5.74 | – | 1.82 | Active | Active | Dose-dependent effect | Dose-dependent effect | 68.21 | Dose-dependent effect | Active | –
11 | CCN(CC)CCNC(=O)c1c(C)[nH]c(/C=C2\C(=O)Nc3ccc(/C=C/S(=O)(=O)Cc4ccccc4)cc32)c1C | – | 14.5 | 10.6 | 8.05 | 13.7 | – | – | – | – | – | – | – | –
12 | Cc1[nH]c(/C=C2\C(=O)Nc3ccc(/C=C/S(=O)(=O)c4ccc(F)cc4)cc32)c(C)c1C(=O)NCCCN(C)C | – | 6.35 | 2.87 | > 12.5 | 9.84 | – | – | – | – | – | – | – | –
13 | CCN(CC)CCNC(=O)c1c(C)[nH]c(/C=C2\C(=O)Nc3ccc(F)cc32)c1C [SUNITINIB] | 61.8 | 18.6 | 16.9 | 18.6 | 2.11 | – | – | Dose-dependent effect | Dose-dependent effect | – | – | – | 15.81
14 | Cc1[nH]c(/C=C2\C(=O)Nc3ccc(/C=C/S(=O)(=O)c4ccc(F)cc4)cc32)c(C)c1C(=O)NCCN(C)C | – | 6.25 | 2.99 | 6.62 | 7.2 | – | – | – | – | – | – | – | –
15 | CCN(CC)CCNC(=O)c1c(C)[nH]c(/C=C2\C(=O)Nc3ccc(/C=C/S(C)(=O)=O)cc32)c1C | – | 16.7 | 12.5 | 29.1 | 2.64 | – | – | – | – | – | – | – | –
